Numbering of substitutions follows the chain as printed. “Also recorded” adds a separate entry of the source.
Experiments:
GalT = molecular target: T1, GalT (Bos taurus, UniProt P08037); settings: relative to Gal; cited from earlier work
T1 sequence (P08037 1-402): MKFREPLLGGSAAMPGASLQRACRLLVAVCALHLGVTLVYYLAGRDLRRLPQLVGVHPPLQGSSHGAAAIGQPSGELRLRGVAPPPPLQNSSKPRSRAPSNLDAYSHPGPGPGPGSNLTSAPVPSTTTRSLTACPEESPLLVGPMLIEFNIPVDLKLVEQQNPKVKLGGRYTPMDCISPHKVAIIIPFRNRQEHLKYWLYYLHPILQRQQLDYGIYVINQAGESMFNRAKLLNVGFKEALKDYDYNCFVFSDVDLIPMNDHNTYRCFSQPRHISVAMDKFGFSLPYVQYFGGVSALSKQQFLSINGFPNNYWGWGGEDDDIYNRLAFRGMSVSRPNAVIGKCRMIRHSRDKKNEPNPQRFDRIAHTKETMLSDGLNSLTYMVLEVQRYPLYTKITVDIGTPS

Y289L GalT = molecular target: T2, Y289L GalT (Bos taurus, UniProt P08037, Y289L); assay: Transfer of keto-sugar from labeling agent 1 to O-GlcNAc peptide by Y289L mutant GalT, LC-MS; type: biochemical; settings: peptide TAPTS(O-GlcNAc)TIAPG, 6 h at 4° C., diammonium salt
T2 construct: made in house
T2 sequence (P08037 1-402 Y289L): T1 sequence (P08037 1-402) with Y289L
Description: The peptide TAPTS(O-GlcNAc)TIAPG (SEQ ID NO: 1) (10 μM) was dissolved in 25 mM MOPS buffer, pH 6.7 containing 5 mM MnCl2 and 8 μM reference peptide (ThermoFinnigan, San Jose, Calif.). Labeling agent 1 and mutant Y289L GalT were added to final concentrations of 1 mM and 100 ng/μL, respectively. Prior to enzyme addition, an aliquot of the—reaction was removed as an initial time point for LC-MS analysis. Reactions were incubated at 4° C. for 6 h, after which an aliquot of the reaction mixture was removed for product analysis by LC-MS. The remainder of the reaction was diluted 5-fold into PBS (final concentration: 10.1 mM Na2HPO4, 1.76 mM KH2HPO4, […], 2.7 mM KCl, pH 6.7), and N-(aminooxyacetyl)-N′-(D-biotinoyl) hydrazine (Molecular Probes, Eugene, Oreg.) was added to a final concentration of 12 mM. After 8 h at 25° C., the extent of biotin-oxime product was measured by LC-MS. […] Labeling reactions with wild-type GalT were performed identically, with the exception that reactions were incubated at 37° C. for 12 h. […]
Base peak chromatograms are shown before and 6 h after the addition of ketone analogue 1 and Y289L GalT. […] For reaction with detection agent aminooxy biotin, formation of the oxime product was monitored using an extracted ion chromatogram within the mass range 1319.0-1321.0 m/z and 1633.0-1635.5 m/z, which was generated post-acquisition via the Xcalibur™ software. […]

[1] = tested on: O-GlcNAc pendant moiety on α-crystallin; assay: Western / lectin blotting of α-crystallin with existing O-GlcNAc detection reagents; type: binding, bovine; settings: blot, chemiluminescence, even when 10 μg of α-crystallin was used
Description: α-Crystallin, and appropriate positive and negative controls were resolved by 15% SDS-PAGE. All Western blotting steps were performed at RT unless otherwise noted. […] RL-2 antibody, at a concentration of 1:2000, was subsequently added in blocking buffer and blots were incubated for 1.5-2 h. Blots were then rinsed with hsTBST and washed 6×5 min. Secondary goat anti-mouse IgG antibody was applied at a concentration of 1:10,000 in hsTBS-T containing 1% BSA. After 1 h, blots were rinsed and washed as described before chemiluminescence detection on film (FIG. 11A). Western blotting with the CTD110.6 antibody was performed according to manufacturer's recommendations. Briefly, α-crystallin and controls were transferred to PVDF and washed 2×15 min with TBS-0.1% tween-20 (TBST). Blots were blocked in TBST containing 3% BSA for 1 h, rinsed 2× with TBST, and probed with CTD110.6 (1:2500) in blocking buffer for 1 h. Blots were then rinsed 2× with TBST and washed 2×5 min. Secondary goat anti-mouse IgM antibody was applied at a concentration of 1:10,000 in blocking buffer for 1 h, and blots were subsequently rinsed with TBST and washed 5×5 min before chemiluminescence detection on film (FIG. 11B).
WGA western blotting was performed essentially as described (25, 27). Briefly, α-crystallin and controls were resolved by 15% SDS-PAGE and electrophoretically transferred to nitrocellulose. […]

For `OCC1OC(O)CC(O)[C@H]1O` (stereo partly drawn) [2-deoxy-Gal], the “rate of transfer by GalT” value (GalT) is listed as “rates comparable to Gal”.

For “Uridine 5′-diphospho-2-acetonyl-2deoxy-a-D-galactopyranose diammonium salt [Labeling agent 1]”, the “conversion of peptide to ketone-labeled product” value (Y289L GalT) was “Complete conversion”.

B1: WGA: wheat-germ agglutinin lectin, existing method to detect GlcNAc (protein)
chain: QRCGEQGSNMECPNNLCCSQYGYCGMGGDYCGKGCQNGACWTSKRCGSQAGGATCTNNQCCSQYGYCGFGAEYCGAGCQGGPCRADIKCGSQAGGKLCPNNLCCSQWGFCGLGSEFCGGGCQSGACSTDKPCGKDAGGRVCTNNYCCSKWGSCGIGPGYCGAGCQSGGCDG
For B1, the “detection of O-GlcNAc on α-crystallin” value [1] was “failed to detect; also recorded: could not detect”.

Reference: US8927300B2, “Method and compositions for the detection of protein glycosylation” (California Institute of Technology, priority 2003, dated 2015)
